These results are taken from ChEMBL document CHEMBL3272243, “Synthesis and biological activity of camel and bovine beta-melanotropins” (1976).

Type in all cases: functional, Anura
Common to all, as to parameters: scale not given: the % may be the effect or the level left

Assay [1] deals with Zone of skin. Description: Melanocyte stimulating activity in frog skin assessed as decrease in reflectance at 1.8 ng relative to control.
For assay [2], the system named is Zone of skin. Description: Melanocyte stimulating activity in frog skin assessed as decrease in reflectance at 2.7 ng relative to control.
Assay [3] concerns Zone of skin. Briefly: Melanocyte stimulating activity in frog skin assessed as decrease in reflectance at 5.4 ng relative to control.
The subject of assay [4] is Zone of skin. Description: Melanocyte stimulating activity in frog skin assessed as decrease in reflectance at 2.7 to 8.1 ng relative to camel betaC2-MSH.
Assay [5] relates to Zone of skin. Description: Melanocyte stimulating activity in frog skin assessed as decrease in reflectance at 8.1 ng relative to control.
Assay [6] has as its system Zone of skin. Briefly: Melanocyte stimulating activity in frog skin assessed as decrease in reflectance at 6.9 ng relative to control.
For assay [7], the system named is Zone of skin. Description: Melanocyte stimulating activity in frog skin assessed as decrease in reflectance at 2.7 to 8.1 ng relative to bovine beta-MSH.
In assay [8] the test system is Zone of skin. Description: Melanocyte stimulating activity in frog skin assessed as decrease in reflectance at 2.3 ng relative to control.

Consider H-DGGPYKMEHFRWGSPPKD-OH, for which the Activity with Zone of skin [1] is recorded as 28.4%; with Zone of skin [2], 36.4%; in the assay with Zone of skin [3], 53%; in the assay with Zone of skin [4] it was 87.8%; with Zone of skin [5] it was 56.5%.

For the substance H-DSGPYKMEHFRWGSPPKD-OH, the Activity in the assay on Zone of skin [2] is listed as 30.1%; in the assay with Zone of skin [6], 44.6%; in the assay on Zone of skin [4], 105.6%; in the assay on Zone of skin [7] it was 120.2%; in the assay on Zone of skin [5], 49.6%; with Zone of skin [8] it was 29.1%.
